Data: US20180185408A1, “ANTIFUNGAL NYLON-3 POLYMERS AND COMBINATION THERAPY USING THEM TO TREAT FUNGAL INFECTIONS” (priority 2016, published 2018)
Converted amounts (≈) assume the structure as drawn. “And” between values parts separate entries of the source, which are not always exact repeats. Equal values may be shown once. Read-outs that look alike come from different tables or passages of the source.

Columns and labels:
Aspergillus fumigatus = assay: Checkerboard microdilution synergy (FIC); assay type: cell-based; details: for MIC: Aspergillus fumigatus
Aspergillus species = assay: MIC100 against 18 species of the Aspergillus genus; assay type: cell-based, Aspergillus spp.
Text: (§1) We assessed the antifungal activity of MM-TM, DM-TM, and NM against 18 different species within the genus Aspergillus.

A. flavus = assay: MIC100 against species of the Aspergillus genus; assay type: cell-based; details: Aspergillus flavus isolate NRRL3357
Text: as §1

Aspergillus terreus = assay: microbe, parasite or virus in culture
Aspergillus spp. = assay: microbe, parasite or virus in culture
[1] = MM:TM with Itraconazole, isolate F11628 (Resistance), […] 10^5 cells/mL
[2] = MM:TM with Itraconazole, isolate F16216 (Resistance), […] 10^5 cells/mL
[3] = MM:TM with ITRA, isolate 08-12-12-13 Cyp51 [TR34/L98H], Avg., 48 hours, 35° C.
[4] = MM:TM with ITRA, isolate 08-19-02-61 Cyp51 [TR34/L98H], Avg., 48 hours, 35° C.
[5] = MM:TM with ITRA, isolate 08-31-08-91 Cyp51 [TR34/L98H], Avg., 48 hours, 35° C.
[6] = MM:TM with ITRA, isolate 08-36-03-25 Cyp51 [TR34/L98H], Avg., 48 hours, 35° C.
[7] = MM:TM with ITRA, isolate 12-7505220 Cyp51 [TR34/L98H], Avg, 48 hours, 35° C.
[8] = MM:TM with ITRA, isolate 12-7505446 Cyp51 [TR34/L98H], Avg., 48 hours, 35° C.
[9] = MM:TM with ITRA, isolate D5 Cyp51 [G54E], Avg., 48 hours, 35° C.
[10] = MM:TM with ITRA, isolate D6 Cyp51 [G54V], Avg., 48 hours, 35° C.
[11] = MM:TM with ITRA, isolate D9 Cyp51 [M220K], Avg., 48 hours, 35° C.

In the case of `CCC(C)n1ncn(-c2ccc(N3CCN(c4ccc(OCC5COC(Cn6cncn6)(c6ccc(Cl)cc6Cl)O5)cc4)CC3)cc2)c1=O` (stereo not drawn) [Itraconazole, itraconazole], the MIC azole combination (Aspergillus fumigatus; 08-19-02-61 Cyp51 [TR34/L98H], ITRA in combination with MM:TM, OD600, 48 h, 35° C.) is reported as >48 µg/mL and 48 µg/mL, the FICazole (Aspergillus fumigatus; 08-19-02-61 Cyp51 [TR34/L98H], ITRA with MM:TM) is reported as 1.000 and 0.500 and the MIC azole combination (Aspergillus fumigatus; 08-31-08-91 Cyp51 [TR34/L98H], ITRA in combination with MM:TM, OD600, 48 h, 35° C.) is reported as greater than 48 µg/mL. It also gave an FICazole (Aspergillus fumigatus; 08-31-08-91 Cyp51 [TR34/L98H], ITRA with MM:TM) of 1.000, an MIC azole combination (Aspergillus fumigatus; 08-36-03-25 Cyp51 [TR34/L98H], ITRA in combination with MM:TM, OD600, 48 h, 35° C.) greater than 48 µg/mL and an FICazole (Aspergillus fumigatus; 08-36-03-25 Cyp51 [TR34/L98H], ITRA with MM:TM) of 1.000. For the same molecule, the FICazole (Aspergillus fumigatus; AF293, ITRA with MM:TM) was 0.143 and 0.198 and 0.210, the MIC (Aspergillus fumigatus; 48 h, CEA10, ITRA as single agent, 35° C.) was greater than 1 µg/mL and the MIC (Aspergillus fumigatus; 48 h, CEA10, MM:TM with Itraconazole, single agent, 48 h, read-out: MIC Alone) was greater than 1.4 µM. It also gave an MIC (Aspergillus fumigatus; 48 h, F11628, ITRA as single agent, 35° C.) of 48 µg/mL, an MIC (Aspergillus fumigatus; 48 h, F16216, ITRA as single agent, 35° C.) of 32 µg/mL and an MIC (Aspergillus fumigatus; 48 h, MM:TM with ITRA, […], Avg., 48 hours, 35° C.) of 1.06 µM. The MIC (Aspergillus fumigatus; [1]) was 48 µg/mL, the MIC (Aspergillus fumigatus; [2]) was 32 µg/mL and the “MIC Combined” value (Aspergillus fumigatus; CEA10, MM:TM with Itraconazole in combination, 48 h) was 0.3 µM. The MIC azole combination (Aspergillus fumigatus; D5 Cyp51 [G54E], ITRA in combination with MM:TM, OD600, 48 h, 35° C.) was greater than 48 µg/mL, the FICazole (Aspergillus fumigatus; D5 Cyp51 [G54E], ITRA with MM:TM) was 1.000 and the MIC azole combination (Aspergillus fumigatus; D7 Cyp51 [WT], ITRA in combination with MM:TM, OD600, 48 h, 35° C.) was 0.19 µg/mL and 0.375 µg/mL. For the same molecule, the FICazole (Aspergillus fumigatus; D7 Cyp51 [WT], ITRA with MM:TM) was 0.253 and 0.500, the MIC azole combination (Aspergillus fumigatus; D9 Cyp51 [M220K], ITRA in combination with MM:TM, OD600, 48 h, 35° C.) was greater than 48 µg/mL and the FICazole (Aspergillus fumigatus; D9 Cyp51 [M220K], ITRA with MM:TM) was 1.000. The MIC azole combination (Aspergillus fumigatus; F11628, ITRA in combination with MM:TM, OD600, 48 h, 35° C.) was 1.06 µM, the MIC azole combination (Aspergillus fumigatus; F16216, ITRA in combination with MM:TM, OD600, 48 h, 35° C.) was 85.03 µM and the FICazole (Aspergillus fumigatus; F16216, ITRA with MM:TM) was 0.750 and 1.000 and 0.938. For the same molecule, the MIC azole combination (Aspergillus fumigatus; MM:TM with ITRA, […], Avg., 48 hours, 35° C.) was 0.4 µM, the FICazole (Aspergillus fumigatus; [3]) was 0.917 and the MIC azole combination (Aspergillus fumigatus; [3]) was 70.15 µM. For the same molecule, the FICazole (Aspergillus fumigatus; [4]) was 0.75, the MIC azole combination (Aspergillus fumigatus; [4]) was 102.04 µM and the FICazole (Aspergillus fumigatus; [5]) was 1.000. It also gave an MIC azole combination (Aspergillus fumigatus; [5]) greater than 68.02 µM, an FICazole (Aspergillus fumigatus; [6]) of 1.000 and an MIC azole combination (Aspergillus fumigatus; [6]) greater than 68.02 µM. The FICazole (Aspergillus fumigatus; [7]) was 0.917, the MIC azole combination (Aspergillus fumigatus; [7]) was 70.15 µM and the FICazole (Aspergillus fumigatus; [8]) was 0.035. For the same molecule, the MIC azole combination (Aspergillus fumigatus; [8]) was 0.67 µM, the FICazole (Aspergillus fumigatus; [9]) was 1.000 and the MIC azole combination (Aspergillus fumigatus; [9]) was greater than 68.02 µM. The FICazole (Aspergillus fumigatus; [10]) was 0.172, the MIC azole combination (Aspergillus fumigatus; [10]) was 18.96 µM and the FICazole (Aspergillus fumigatus; [11]) was 1.000. The MIC azole combination (Aspergillus fumigatus; [11]) was greater than 68.02 µM, the FICazole (Aspergillus fumigatus; [1]) was 0.008 and the FICazole (Aspergillus fumigatus; [2]) was 1.000. For the same molecule, the “increase in efficacy in the presence of MM:TM” value (Aspergillus fumigatus; azole-resistant strain F11628) was greater than 100 fold, the MIC (Aspergillus species; Aspergillus aculeatus isolate CBS 172.66) was less than 1 µg/mL and the MIC (Aspergillus species; Aspergillus brasiliensis isolate CBS 101740) was 64 µg/mL (≈ 90.7 µM). The MIC (Aspergillus species; Aspergillus carbonarius isolate DT0115-B6) was less than 1 µg/mL, the MIC (Aspergillus species; Aspergillus clavatus isolate CBS 513.65) was 64 µg/mL (≈ 90.7 µM) and the MIC (Aspergillus species; Aspergillus fumigatus isolate CEA10) was less than 1 µg/mL. For the same molecule, the MIC (Aspergillus species; Aspergillus glaucus isolate CBS 516.65) was 2 µg/mL (≈ 2.83 µM), the MIC (Aspergillus species; Aspergillus nidulans isolate FGSCA4) was less than 1 µg/mL and the MIC (Aspergillus species; Aspergillus niger isolate CBS 113.46) was less than 1 µg/mL. The MIC (Aspergillus species; Aspergillus oryzae isolate Rib40) was 1 µg/mL (≈ 1.42 µM), the MIC (Aspergillus species; Aspergillus parasiticus isolate Su-1) was less than 1 µg/mL and the MIC (Aspergillus species; Aspergillus sydowii isolate CBS 593.65) was 2 µg/mL (≈ 2.83 µM). It also gave an MIC (Aspergillus species; Aspergillus terreus isolate NCCB IH2626) of less than 1 µg/mL, an MIC (Aspergillus species; Aspergillus versicolor isolate CBS 795.97) of 1 µg/mL (≈ 1.42 µM) and an MIC (Aspergillus species; Aspergillus wentii isolate DT0136-E9) of less than 1 µg/mL. For the same molecule, the MIC (Aspergillus species; Aspergillus zonatus isolate CBS 506.65) was less than 1 µg/mL, the MIC (Aspergillus species; Neosartorya fischeri isolate CBS 544.65) was greater than 8 µg/mL and the MIC (A. flavus) was less than 1 µg/mL. For the same molecule, the MIC (Aspergillus terreus) was 1.4 µM (≈ 0.988 µg/mL), the MIC (Aspergillus terreus; 48 h) was 1 µg/mL and 1.4 µM and the MIC (Aspergillus spp.) was roughly 1 µM (≈ 0.706 µg/mL).
